Results: patent publication US8846705B2, “Diaminopyrimidines as P2X3 and P2X2/3 antagonists” (Roche Palo Alto LLC, priority 2004, dated 2014)
Where a name gives a salt, the structure may show the parent alone.

Tested on: not given
Test: not given

melting point [°C]	Structure (SMILES)
> 300	Cc1nc2c(C)cc(Oc3cnc(N)nc3N)c(C(C)C)c2o1 (as salt: hydrochloride) [Example 66, 5-(7-Isopropyl-2,4-dimethyl-benzooxazol-6-yloxy)-pyrimidine-2,4-diamine]
253.7 to 254.6	COc1cc(C(C)C)c(Oc2cnc(N)nc2N)cc1-c1ccco1 [Example 59, 5-(5-Furan-2-yl-2-isopropyl-4-methoxy-phenoxy)-pyrimidine-2,4-diamine]
> 300	Cc1c(C(=O)O)[nH]c2cc(Oc3cnc(N)nc3N)c(C(C)C)cc12 [Example 64, 6-(2,4-Diamino-pyrimidin-5-yloxy)-5-isopropyl-3-methyl-1H-indole-2-carboxylic acid]
63.5 to 69.4	CNC(=O)OC[C@@H](C)Nc1ncc(Oc2cc(Cl)c(OC)cc2C(C)C)c(N)n1 (stereo in doubt) [Example 7, Methyl-carbamic acid 2-[4-amino-5-(5-chloro-2-isopropyl-4-methoxy-phenoxy)-pyrimidin-2-ylamino]-propyl ester]
256	Cc1cn(C)c2cc(C(F)(F)F)c(Oc3cnc(N)nc3N)cc12 (as salt: hydrochloride) [Example 63, 5-(1,3-Dimethyl-6-trifluoromethyl-1H-indol-5-yloxy)-pyrimidine-2,4-diamine]
135 to 138.5	COc1cc(C(C)C)c(Oc2cnc(N)nc2N)cc1-c1ncon1 (as salt: trifluoroacetic acid salt) [Example 57, 5-(2-Isopropyl-4-methoxy-5-[1,2,4]oxadiazol-3-yl-phenoxy)-pyrimidine-2,4-diamine]
111.4 to 116.9	COc1cc(C(C)C)c(Oc2cnc(N[C@H](C)CO)nc2N)cc1Cl (as salt: hydrochloride) [Compound 120, 2-[4-Amino-5-(5-chloro-2-isopropyl-4-methoxy-phenoxy)-pyrimidin-2-ylamino]-(R)-propan-1-ol]
167.3 to 170.1	CC(C)c1cc2c(cc1Oc1cnc(N)nc1N)OCCN2C [Example 58, 5-(6-Isopropyl-4-methyl-3,4-dihydro-2H-benzo[1,4]oxazin-7-yloxy)-pyrimidine-2,4-diamine]
181	CCc1c(Oc2cnc(N)nc2N)cc(C)c2sccc12 [Example 62, 5-(4-Ethyl-7-methyl-benzo[b]thiophen-5-yloxy)-pyrimidine-2,4-diamine]
115 to 117	COc1cc(C(C)C)c(Oc2cnc(N)nc2N)cc1N1CCN(S(C)(=O)=O)CC1 [Example 61, 5-[2-Isopropyl-5-(4-methanesulfonyl-piperazin-1-yl)-4-methoxy-phenoxy]-pyrimidine-2,4-diamine]

Molecular target: T1, rat P2X3 receptor (Rattus norvegicus, UniProt P49654)
T1 sequence (P49654 1-397): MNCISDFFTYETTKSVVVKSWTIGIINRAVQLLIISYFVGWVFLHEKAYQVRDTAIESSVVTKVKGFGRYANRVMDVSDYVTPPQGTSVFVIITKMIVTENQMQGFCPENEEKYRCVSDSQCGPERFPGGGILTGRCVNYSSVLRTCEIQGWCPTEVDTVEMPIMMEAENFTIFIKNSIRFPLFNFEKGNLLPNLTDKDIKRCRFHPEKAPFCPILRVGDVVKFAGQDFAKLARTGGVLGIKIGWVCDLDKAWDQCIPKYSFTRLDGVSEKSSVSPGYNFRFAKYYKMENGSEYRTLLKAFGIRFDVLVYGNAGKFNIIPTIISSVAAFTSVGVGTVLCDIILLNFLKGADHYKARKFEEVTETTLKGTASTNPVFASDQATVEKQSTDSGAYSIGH
Test: cell-based
Experimental: P2X3/P2X2/3 FLIPR (Fluorometric Imaging Plate Reader) Assay
CHO-K1 cells were transfected with cloned rat P2X3 or human P2X2/3 receptor subunits and passaged in flasks. 18-24 hours before the FLIPR experiment, cells were released from their flasks, centrifuged, and resuspended in nutrient medium at 2.5×10^5 cells/ml. The cells were aliquoted into black-walled 96-well plates at a density of 50,000 cells/well and incubated overnight in 5% CO2 at 37° C. On the day of the experiment, cells were washed in FLIPR buffer (calcium- and magnesium-free Hank's balanced salt solution, 10 mM HEPES, 2 mM CaCl2, 2.5 mM probenecid; FB). […]
Test compounds (dissolved in DMSO at 10 mM and serially diluted with FB) or vehicle were added to each well (25 μl of a 4× solution) and allowed to equilibrate for 20 minutes at room temperature. The plates were then placed in the FLIPR and a baseline fluorescence measurement (excitation at 488 nm and emission at 510-570 nm) was obtained for 10 seconds before a 100 μl/well agonist or vehicle addition. […] Fluorescence was measured for an additional 2 minutes at 1 second intervals after agonist addition. A final addition of ionomycin (5 μM, final concentration) was made to each well of the FLIPR test plate to establish cell viability and maximum fluorescence of dye-bound cytosolic calcium. […]

IC50 [nM]	Structure (SMILES)
~5.01	CC(C)c1cc(O)c(I)cc1Oc1cnc(N)nc1N [4-(2,4-Diamino-pyrimidin-5-yloxy)-2-iodo-5-isopropyl-phenol]
> 10000	COc1cc(C)c(Cc2cnc(N)nc2N)cc1OC [5-(4,5-Dimethoxy-2-methyl-benzyl)-pyrimidine-2,4-diamine]
